Laboratory results from patent publication US6630485B2, “p38 map kinase inhibitors” (Syntex (U.S.A.) LLC, priority 1997, dated 2003).

Tests used:
p38 MAP kinase = target: T1, p38 MAP kinase (Homo sapiens, UniProt Q16539); assay: Inhibition of p-38 (MAP) kinase, in vitro assay (33P transfer from γ-33P-ATP to Myelin Basic Protein); type: biochemical; conditions: phosphorylated recombinant p38 MAP kinase, MBP substrate, 30° C., read-out: IC50 (concentration causing 50% inhibition of the p-38 enzyme)
T1 construct: made in house; host or cells: E. coli
T1 sequence (Q16539 whole entry): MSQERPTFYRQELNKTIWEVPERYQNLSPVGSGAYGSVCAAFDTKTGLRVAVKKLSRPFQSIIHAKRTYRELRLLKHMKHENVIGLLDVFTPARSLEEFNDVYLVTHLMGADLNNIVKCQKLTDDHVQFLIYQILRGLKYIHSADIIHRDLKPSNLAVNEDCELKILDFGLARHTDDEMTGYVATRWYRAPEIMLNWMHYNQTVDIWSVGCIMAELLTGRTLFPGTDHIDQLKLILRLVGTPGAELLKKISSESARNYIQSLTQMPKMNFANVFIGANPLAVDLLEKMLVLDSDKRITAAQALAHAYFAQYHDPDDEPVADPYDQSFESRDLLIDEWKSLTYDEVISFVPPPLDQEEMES
Experimental: The p-38 MAP kinase inhibitory activity of compounds of this invention in vitro was determined by measuring the transfer of the γ-phosphate from γ-^33P-ATP by p-38 kinase to Myelin Basic Protein (MBP), using the a minor modification of the method described in Ahn, N. G.; et al. J. of Biol. Chem. Vol. 266(7), 4220-4227, (1991)
The phosphorylated form of the recombinant p38 MAP kinase was expressed with SEK-1 and MEKK in E. coli (see, Khokhlatchev, A. et al. J. of Biol. Chem. Vol. 272(17), 11057-11062, (1997) and then purified by affinity chromatography using a Nickel column.
The phosphorylated p38 MAP kinase was diluted in kinase buffer (20 mM 3-(N-morpholino)propanesulfonic acid, pH 7.2, 25 mM β-glycerol phosphate, 5 mM ethylene glycol-bis(beta-aminoethyl ether)-N,N,N′,N′-tetraacetic acid, 1 mM sodium vanadate, 1 mM dithiothreitol, 40 mM magnesium chloride). Test compound dissolved in DMSO or only DMSO (control) was added and the samples were incubated for 10 min. at 30° C. The kinase reaction was initiated by the addition of a substrate cocktail containing MBP and γ-^33P-ATP. After incubating for an additional 20 min. at 30° C., the reaction was terminated by adding 0.75% phosphoric acid. The phosphorylated MBP was then separated from the residual γ-^33P-ATP using a phosphocellulose membrane (Millipore, Bedfrod, Mass.) and quantitated using a scintillation counter (Packard, Meriden, Conn.).
The p-38 inhibitory activities (expressed as IC50, the concentration causing 50% inhibition of the p-38 enzyme being assayed) of some compounds of the invention is: […]

TNF-α [1] = assay: Inhibition of LPS-induced TNF-α production in mice, in vivo assay; conditions: female BALB/c mice, dosed orally at 30 mg, 30 min before 20 μg LPS i.p., serum TNF-α after 1.5 h
Experimental: The ability of the compounds of this invention to inhibit the TNF-α release, in vivo, was determined using a minor modification of the methods described in described in Zanetti, G.; Heumann, D., et. al., “Cytokine production after intravenous or peritoneal Gram-negative bacterial challenge in mice,” J. Immunol., 148, 1890, (1992) and Sekut, L., Menius, J. A., et. al., “Evaluation of the significance of elevated levels of systemic and localized tumor necrosis factor in different animal models of inflammation,” J. Lab. Clin. Med., 124, 813, (1994).
Female BALB/c mice weighing 18-21 grams (Charles River, Hollister, Calif.) were acclimated for one week. Groups containing 8 […] each were dosed orally either with the test compounds dissolved in an aqueous vehicle containing 0.9% sodium chloride, 0.5% sodium carboxymethyl-cellulose, 0.4% polysorbate 80, 0.9% benzyl alcohol (CMC vehicle) or only vehicle (control group). After 30 min., the mice were injected intraperitoneally with 20 μg of LPS (Sigma, St. Louis, Mo.). After 1.5 h, the mice were sacrificed by CO2 inhalation and blood was harvested by cardiocentesis. Blood was clarified by centrifugation at 15,600×g for 5 min., and sera were transferred to clean tubes and frozen at −20° C. until analyzed for TNF-α by ELISA assay (Biosource International, Camarillo, Calif.) following the manufacturer's protocol.
The TNF-α inhibitory activity of test materials, i.e., the measure of the TNF-α content in the test group relative to the vehicle treated group (control group) at 30 mg was: […]

TNF-α [2] = assay: Inhibition of LPS-induced TNF-α production in THP1 cells, in vitro assay (ELISA); type: cell-based; conditions: Homo sapiens; THP-1 cells, LPS 0.5 μg/ml, 2 h; read-out: IC50 (half-maximal reduction in 450 nm absorbance, TNF-α ELISA)
Experimental: The ability of the compounds of this invention to inhibit the TNF-α release was determined using a minor modification of the methods described in described in Blifeld, C. et al. Transplantation, Vol. 51(2), 498-503, (1991).
THP-1 cells were suspended in culture medium [RPMI (Gibco-BRL, Gailthersburg, Md.) containing 15% fetal bovine serum, 0.02 mM 2-mercaptoethanol], at a concentration of 2.5×10^6 cells/ml and then plated in 96 well plate (0.2 ml aliquots in each well). Test compounds were dissolved DMSO and then diluted with the culture medium such that the final DMSO concentration was 5%. 20 μl aliquots of test solution or only medium with DMSO (control) were added to each well. The cells were incubated for 30 min., at 37° C. LPS (Sigma, St. Louis, Mo.) was added to the wells at a final concentration of 0.5 μg/ml, and cells were incubated for an additional 2 h. At the end of the incubation period, culture supernatants were collected and the amount of TNF-α present was determined using an ELISA assay as described below.
The amount of human TNF-α present was determined by a specific trapping ELISA assay using two anti-TNF-α antibodies (2TNF-H22 and 2TNF-H34) described in Reimund, J. M., et al. GUT Vol. 39(5), 684-689 (1996).
Polystyrene 96-well plates were coated with 50 μl per well of antibody 2TNF-H22 in PBS (10 μg/ml) and incubated in a humidified chamber at 4° C. overnight. The plates were washed with PBS and then blocked with 5% nonfat-dry milk in PBS for 1 hour at room temperature and washed with 0.1% BSA (bovine serum albumin) in PBS.
TNF standards were prepared from a stock solution of human recombinant TNF-α (R&D Systems, Minneapolis, Minn.). The concentration of the standards in the assay began at 10 ng/ml followed by 6 half log serial dilution's.
25 μl aliquots of the above culture supernatants or TNF standards or only medium (control) were mixed with 25 μl aliquots of biotinylated monoclonal antibody 2TNF-H34 (2 μg/ml in PBS containing 0.1% BSA) and then added to each well. The samples were incubated for 2 h at room temperature with gentle shaking and then washed 3 times with 0.1% BSA in PBS. 50 μl of peroxidase-streptavidin (Zymed, S. San Francisco, Calif.) solution containing 0.416 μg/ml of peroxidase-streptavidin and 0.1% BSA in PBS was added to each well. The samples were incubated for an additional 1 h at room temperature and then washed 4 times with 0.1% BSA in PBS. 50 μl of O-phenylenediamine solution (1 μg/ml O-phenylene-diamine and 0.03% hydrogen peroxide in 0.2M citrate buffer pH 4.5) was added to each well and the samples were incubated in the dark for 30 min., at room temperature. Optical density of the sample and the reference were read at 450 nm and 650 nm, respectively. TNF-α levels were determined from a graph relating the optical density at 450 nm to the concentration used.
The IC50 value was defined as the concentration of the test compound corresponding to half-maximal reduction in 450 nm absorbance.

SMILES	melting point [°C]	IC50 (p38 MAP kinase) [nM]	% Inhibition (TNF-α content in test group relative to vehicle treated group) (TNF-α [1]) [%]	IC50 (TNF-α [2]) [nM]
On1c(-c2ccncc2)c(-c2ccc(F)cc2)c2ncccc21 [compound 1, 3-(4-Fluorophenyl)-1-hydroxy-2-(pyridin-4-yl)-1H-pyrrolo[3,2-b]pyridine]	225 to 228	–	–	–
COn1c(-c2ccncc2)c(-c2ccc(F)cc2)c2ncccc21 [compound 2, 3-(4-Fluorophenyl)-1-methoxy-2-(pyridin-4-yl)-1H-pyrrolo[3,2-b]pyridine]	168 to 171.5	68	75	460
Fc1ccc(-c2c(-c3ccncc3)n(OCCN3CCOCC3)c3cccnc23)cc1 [compound 3, 3-(4-Fluorophenyl)-1-[2-(morpholin-4-yl)ethoxy]-2-(pyridin-4-yl)-1H-pyrrolo[3,2-b]pyridine]	139 to 141	221	56	–
Fc1ccc(-c2c(-c3ccncc3)n(OCCN3CCCCC3)c3cccnc23)cc1 [compound 4, 3-(4-Fluorophenyl)-1-[2-(piperidin-1-yl)ethoxy]-2-(pyridin-4-yl)-1H-pyrrolo[3,2-b]pyridine]	95.9 to 98.7	–	–	–
Fc1ccc(-c2c(-c3ccncc3)n(OCCN3CCCC3)c3cccnc23)cc1 [compound 5, 3-(4-fluorophenyl)-2-(pyridin-4-yl)-1-[2-(pyrrolidin-1-yl)ethoxy]-1H-pyrrolo[3,2-b]pyridine]	123 to 129	246	–	120
Fc1ccc(-c2c(-c3ccncc3)[nH]c3cccnc23)cc1 [compound 6, 3-(4-Fluorophenyl)-2-(pyridin-4-yl)-1H-pyrrolo[3,2-b]pyridine]	> 285	–	68	–
CCn1c(-c2ccncc2)c(-c2ccc(F)cc2)c2ncccc21 [compound 7, 1-Ethyl-3-(4-fluorophenyl)-2-(pyridin-4-yl)-1H-pyrrolo[3,2-b]pyridine]	204 to 206	–	–	–
Fc1ccc(-c2c(-c3ccncc3)n(CCN3CCOCC3)c3cccnc23)cc1 [compound 8, 3-(4-Fluorophenyl)-2-(pyridin-4-yl)-1-[2-(morpholin-4-yl)ethyl]-1H-pyrrolo[3,2-b]-pyridine]	171.2 to 173	–	–	–
Fc1ccc(-c2c(-c3ccncc3)n(CCN3CCCCC3)c3cccnc23)cc1 [compound 9, 3-(4-Fluorophenyl)-1-[2-(piperidin-1-yl)ethyl]-2-(pyridin-4-yl)-1H-pyrrolo[3,2-b]pyridine]	148.1 to 153.3	–	–	300
Fc1ccc(-c2c(-c3ccncc3)oc3cccnc23)cc1 [compound 101, 3-(4-Fluorophenyl)-2-(pyridin-4-yl)-furo[3,2-b]pyridine]	141 to 143	85.5	86	–
Fc1ccc(-c2c(-c3ccnc(Cl)n3)oc3cccnc23)cc1 [compound 102, 2-(2-Chloropyrimidin-4-yl)-3-(4-fluorophenyl)-furo[3,2-b]pyridine]	224.8 to 225.2	–	–	–
Nc1nccc(-c2oc3cccnc3c2-c2ccc(F)cc2)n1 [compound 103, 2-(2-Aminopyrimidin-4-yl)-3-(4-fluorophenyl)-furo[3,2-b]pyridine]	252.9 to 253.7	–	–	–
Fc1ccc(-c2c(-c3ccncc3)[nH]c3ccncc23)cc1 [compound 105, 3-(4-Fluorophenyl)-2-(pyridin-4-yl)-1H-pyrrolo[3,2-c]pyridine]	256 to 257	–	–	–
Fc1ccc(-c2c(-c3ccncc3)[nH]c3nccnc23)cc1 [compound 106, 7-(4-Fluorophenyl)-6-(pyridin-4-yl)-5H-pyrrolo[2,3-b]pyrazine]	–	120	–	1100
N#CCCCn1c(-c2ccncc2)c(-c2ccc(F)cc2)c2nccnc21 [compound 108]	–	747	–	8830
OCCNc1cc(-c2[nH]c3nccnc3c2-c2ccc(F)cc2)ccn1 [compound 112]	–	34.4	–	241
